# In patent publication US10226448B2, “3-(1H-pyrrolo[3,2-C]pyridin-2-yl)-1H-pyrazolo[3,4-B]pyridines and therapeutic uses thereof” (Samumed, LLC, priority 2015, dated 2019):
# pEC50: −log10 of the molar value.
# How the values were obtained:
# Format in all cases: cell-based
# IL-6 in THP-1 cells = test: IL-6 inhibition in LPS-stimulated THP-1 human monocyte cells (HTRF); settings: for pEC50: IL-6 inhibition, LPS-stimulated THP-1 cells, HTRF, 10-point dose-response starting from 10 μM; for inhibition at 10 µM: THP-1, read-out: percentage in parentheses beside EC50 >10
# Outline: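 THP-1 cells were serum-reduced (1% FBS, 24 h), plated at 5000 cells/well with compound for 2 h at 37 °C, then stimulated 22 h with 500 ng/mL LPS. Secreted IL-6 was quantified by HTRF (665/620 nm ratio). Signals were normalised to DMSO, and EC50 was fitted by four-parameter nonlinear regression.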
# [1] = test system: Wnt activity (Sp5-Luc reporter, TCF/LEF binding sites) in SW480 colon carcinoma cells; test: Wnt activity screening assay: Sp5-Luc reporter gene assay in SW480 cells; settings: Homo sapiens; for pEC50: Sp5-Luc reporter, SW480 cells, overnight incubation
# Outline: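 SW480 cells stably carrying a luciferase reporter under a human Sp5 promoter with eight TCF/LEF sites, plated at 4,000 cells/well in 1% FBS medium. Luminescence read with BrightGlo, normalized to DMSO-treated cells; EC50 from four-parameter variable-slope nonlinear regression.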
# [2] = test system: primary human mesenchymal stem cells (hMSCs); test: Induction of chondrogenesis in primary human mesenchymal stem cells (chondrogenic nodules, Rhodamine B / Nile Red); settings: 6 days; for Emax: relative to TGF-β3 (10 ng/mL) positive control, read-out: Max. Activity as % TGF-β3 activity; for EC50: concentration required to induce 50% levels of chondrogenesis vs TGF-β3, read-out: Conc (nM) of 50% TGF-β3 activity
# Outline: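 Primary hMSCs at passage 3–6 were fixed with 4% formaldehyde and stained with 2 μg/mL Rhodamine B plus 20 μM Nile Red to image chondrogenic nodules. Nodule counts normalized to the mean of 3 DMSO wells (fold change), averaged over 3 replicate wells per concentration. TGF-β3 served as positive control; EC50, maximum activity and the dose giving maximum are reported.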
# SW480 colon cancer cells = test: Cell viability assay (CellTiter-Blue) in SW480 colon cancer cells; settings: Homo sapiens; for pEC50: 96 h, SW480 cell viability, four days, CellTiter-Blue; for inhibition at 10 µM: SW480, read-out: percent inhibition at 10 μM
# Outline: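 Fluorescence from resazurin reduced to resorufin by metabolically active cells was the read-out, taken after ~3 h with CellTiter-Blue.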
# [3] = test system: LL29 cells (primary human fibroblasts derived from IPF patients), α-smooth muscle actin; test: Inhibition of the fibrotic process: αSMA staining in TGF-β1 treated primary human fibroblasts from IPF patients (LL29 cells); settings: Fibroblast; for pEC50: 96 h, LL29 cells, TGF-β1 20 ng/mL, 4 days, % αSMA positive cells; for inhibition at 10 µM: read-out: percent inhibition at 10 μM
# Outline: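 IPF-patient-derived LL29 lung fibroblasts in F12 with 1% FBS, stimulated with TGF-β1 alongside compound; TGF-β1 plus DMSO wells served as controls. After 4 days, nuclei stained with 1 μM SYTOX green for 30 min at room temperature, alongside αSMA staining.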
Compound,pEC50 (IL-6 in THP-1 cells),pEC50 [1],pEC50 (SW480 colon cancer cells),EC50 [2] [nM],Emax [2] [%],pEC50 [3],inhibition at 10 µM [3] [%],"inhibition at 10 µM ([1]; SW480, read-out: percent inhibition at 10 μM) [%]",inhibition at 10 µM (SW480 colon cancer cells) [%],inhibition at 10 µM (IL-6 in THP-1 cells) [%]
"CC(C)CC(=O)Nc1cncc(-c2cnc3[nH]nc(-c4cc5c(-c6cc(F)cc(CNS(C)(=O)=O)c6)nccc5[nH]4)c3c2)c1 [Compound 478, N-(5-(3-(4-(3-Fluoro-5-(methylsulfonamidomethyl)phenyl)-1H-pyrrolo[3,2-c]pyridin-2-yl)-1H-pyrazolo[3,4-b]pyridin-5-yl)pyridin-3-yl)-3-methylbutanamide]",6.27,5.71,5.39,300,52,< 5.00,0,–,–,–
"Cc1ccncc1-c1cnc2[nH]nc(-c3cc4c(-c5cc(F)cc(CNS(C)(=O)=O)c5)nccc4[nH]3)c2c1 [Compound 481, N-(3-Fluoro-5-(2-(5-(4-methylpyridin-3-yl)-1H-pyrazolo[3,4-b]pyridin-3-yl)-1H-pyrrolo[3,2-c]pyridin-4-yl)benzyl)methanesulfonamide]",6.51,6.18,5.82,900,173,6.22,–,–,–,–
"CCNCc1cncc(-c2cnc3[nH]nc(-c4cc5c(-c6cc(F)cc(CNS(C)(=O)=O)c6)nccc5[nH]4)c3c2)c1 [Compound 482, N-(3-(2-(5-(5-((Ethylamino)methyl)pyridin-3-yl)-1H-pyrazolo[3,4-b]pyridin-3-yl)-1H-pyrrolo[3,2-c]pyridin-4-yl)-5-fluorobenzyl)methanesulfonamide]",5.65,< 5.00,< 5.00,300,61,< 5.00,0,8.8,16.6,–
"CC(C)Nc1cncc(-c2cnc3[nH]nc(-c4cc5c(-c6cc(F)cc(CNS(C)(=O)=O)c6)nccc5[nH]4)c3c2)c1 [Compound 488, N-(3-Fluoro-5-(2-(5-(5-(isopropylamino)pyridin-3-yl)-1H-pyrazolo[3,4-b]pyridin-3-yl)-1H-pyrrolo[3,2-c]pyridin-4-yl)benzyl)methanesulfonamide]",< 5.00,6.31,5.87,100,66,6.07,–,–,–,54.6
"CS(=O)(=O)NCc1cc(F)cc(-c2nccc3[nH]c(-c4n[nH]c5ncc(-c6cncc(NC(=O)C7CCCCC7)c6)cc45)cc23)c1 [Compound 499, N-(5-(3-(4-(3-Fluoro-5-(methylsulfonamidomethyl)phenyl)-1H-pyrrolo[3,2-c]pyridin-2-yl)-1H-pyrazolo[3,4-b]pyridin-5-yl)pyridin-3-yl)cyclohexane carboxamide]",5.43,5.44,< 5.00,–,120,< 5.00,23.6,–,35.5,–
"Fc1ccccc1-c1nccc2[nH]c(-c3n[nH]c4ncc(-c5cn[nH]c5)cc34)cc12 [Compound 539, 3-(4-(2-Fluorophenyl)-1H-pyrrolo[3,2-c]pyridin-2-yl)-5-(1H-pyrazol-4-yl)-1H-pyrazolo[3,4-b]pyridine]",7.00,7.25,6.58,–,49,7.12,–,–,–,–
"Cn1cc(-c2cnc3[nH]nc(-c4cc5c(-c6cccnc6)nccc5[nH]4)c3c2)cn1 [Compound 556, 5-(1-Methyl-1H-pyrazol-4-yl)-3-(4-(pyridin-3-yl)-1H-pyrrolo[3,2-c]pyridin-2-yl)-1H-pyrazolo[3,4-b]pyridine]",6.45,6.50,6.01,–,33,7.01,–,–,–,–
"CS(=O)(=O)NCc1cc(F)cc(-c2nccc3[nH]c(-c4n[nH]c5ncc(-c6cncc(OCc7ccccc7)c6)cc45)cc23)c1 [Compound 774, N-(3-(2-(5-(5-(Benzyloxy)pyridin-3-yl)-1H-pyrazolo[3,4-b]pyridin-3-yl)-1H-pyrrolo[3,2-c]pyridin-4-yl)-5-fluorobenzyl)methanesulfonamide]",< 5.00,5.16,< 5.00,–,21,5.67,–,–,30.2,48.3

# Continued, in another order:
pEC50 (IL-6 in THP-1 cells),pEC50 [1],pEC50 (SW480 colon cancer cells),EC50 [2] [nM],Compound,Emax [2] [%],pEC50 [3],inhibition at 10 µM [3] [%],"inhibition at 10 µM ([1]; SW480, read-out: percent inhibition at 10 μM) [%]",inhibition at 10 µM (SW480 colon cancer cells) [%],inhibition at 10 µM (IL-6 in THP-1 cells) [%]
6.35,5.85,5.82,–,"O=C(Nc1cncc(-c2cnc3[nH]nc(-c4cc5cnccc5[nH]4)c3c2)c1)C1CCCCC1 [Compound 275, N-(5-(3-(1H-Pyrrolo[3,2-c]pyridin-2-yl)-1H-pyrazolo[3,4-b]pyridin-5-yl)pyridin-3-yl)cyclohexanecarboxamide]",9,5.86,–,–,–,–
6.75,6.33,6.31,100,"O=C(Nc1cncc(-c2cnc3[nH]nc(-c4cc5c(-c6cccs6)nccc5[nH]4)c3c2)c1)C1CCC1 [Compound 357, N-(5-(3-(4-(Thiophen-2-yl)-1H-pyrrolo[3,2-c]pyridin-2-yl)-1H-pyrazolo[3,4-b]pyridin-5-yl)pyridin-3-yl)cyclobutanecarboxamide]",82,6.22,–,–,–,–
6.91,5.44,< 5.00,300,"CS(=O)(=O)NCc1cc(F)cc(-c2nccc3[nH]c(-c4n[nH]c5ncc(-c6cncc(NC(=O)C7CCC7)c6)cc45)cc23)c1 [Compound 497, N-(5-(3-(4-(3-Fluoro-5-(methylsulfonamidomethyl)phenyl)-1H-pyrrolo[3,2-c]pyridin-2-yl)-1H-pyrazolo[3,4-b]pyridin-5-yl)pyridin-3-yl)cyclobutanecarboxamide]",52,< 5.00,0,–,48,–
